According to publication PMC7900207, “Checkpoint inhibition through small molecule-induced internalization of programmed death-ligand 1” (Nature Communications, 2021):

Key:
PD-1/PD-L1 = system: T1, PD-1/PD-L1; assay: cells; design: species or system Jurkat PD-1 effector cells with PD-L1 aAPC/CHO-K1; PD-1/PD-L1 blockade bioassay, NFAT luciferase reporter, Bio-Glo luminescence; details: Homo sapiens, Jurkat; NFAT reporter bioassay
T1 construct: PD-L1 on aAPC/CHO-K1 cells, PD-1 on Jurkat effector cells (Promega)
Experimental: BioAssay is designed to measure luciferase activity showing the EC50 level of PD-1/PD-L1 blocking by small molecules targeting PD-L1 protein in the cell. PD-1 effector cells were incubated with PD-L1 aAPC/CHO-K1 cells in the absence or presence of small molecules or αPD-L1 blocking antibodies, as indicated titration according to the manufacturer’s instruction (Promega). Bio-Glo™ Reagent was added and luminescence quantified. Data were analyzed using GraphPad Prism. Small molecules were first screened in a cell-free in vitro homogeneous time-resolved fluorescence (HTRF) assay, utilizing αPD-L1 (MIH1) and αPD-1 (nivolumab) antibodies as positive controls. […] It has been reported that a small molecule can stabilize a dimer form of PD-L1 through interactions with antiparallel residues in the hydrophobic dimer interface. To test if compound A can induce intermolecular PD-L1 interactions in solution, we developed a homodimer HTRF assay. […] In this assay, preventing the PD-1/PD-L1 interaction results in a release of constitutive NFAT reporter suppression and increases luciferase activity (relative luminescence units). […] We determined if compound A cellular bioassay potency could translate into immunomodulatory effects on primary human immune cells. […]

cell surface PD-L1 = target: T2, cell surface PD-L1 (Homo sapiens, UniProt Q9NZQ7); assay: cell-based
T2 construct: gene CD274

[1] = target: T3, programmed death-ligand 1 (PD-L1, hPD-L1) (Homo sapiens, UniProt Q9NZQ7); assay: co-crystal structure at […] Å (PD-L1 homodimer); IC50 from PD-1/PD-L1 HTRF assay; PD-L1/PD-L1 dimerization HTRF; type: binding
T3 construct: gene CD274; human PD-L1(18–134) with 6xHis carboxyl-terminal tag (crystal structure); recombinant Human PD-L1-His (HTRF)
T3 sequence (Q9NZQ7 18-134): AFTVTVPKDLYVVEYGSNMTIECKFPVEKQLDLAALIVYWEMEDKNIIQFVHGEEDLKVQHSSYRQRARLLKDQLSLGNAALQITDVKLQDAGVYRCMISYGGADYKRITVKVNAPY

T2 sequence (Q9NZQ7 whole entry): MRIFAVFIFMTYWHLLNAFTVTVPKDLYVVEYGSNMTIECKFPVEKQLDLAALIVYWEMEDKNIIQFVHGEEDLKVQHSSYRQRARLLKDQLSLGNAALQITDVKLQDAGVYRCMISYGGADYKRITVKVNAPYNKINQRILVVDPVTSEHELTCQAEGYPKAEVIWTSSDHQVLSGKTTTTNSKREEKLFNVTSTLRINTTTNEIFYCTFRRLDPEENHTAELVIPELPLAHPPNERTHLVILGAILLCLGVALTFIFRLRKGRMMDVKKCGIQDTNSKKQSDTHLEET

Cc1c(NC(=O)c2ccc(CNCCO)cn2)cccc1-c1cccc(NC(=O)c2ccc(CNCCO)cn2)c1C [ARB-272572]
EC50 (PD-1/PD-L1): 17.9 nM
IC50 (cell surface PD-L1): 2.1 nM

Cc1c(NC(=O)c2ccc(CNCCO)cn2)cccc1-c1cccc(NC(=O)c2ccc(CNCCO)cn2)c1C [compound A, ARB-272572]
IC50 [1]: 0.4 nM
